Data as given in the supplement of paper PMC10307832.

Experiments:
Experiment in all cases: relative viability (nuclei count vs DMSO), 5 days (fraction); higher = more cells survive
Vismodegib + Alpelisib = compound: CS(=O)(=O)c1ccc(C(=O)Nc2ccc(Cl)c(-c3ccccn3)c2)c(Cl)c1 [Vismodegib] + Cc1nc(NC(=O)N2CCC[C@H]2C(N)=O)sc1-c1ccnc(C(C)(C)C(F)(F)F)c1 [Alpelisib] (partner 2 µM)
Outline: (§1)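 Lung cancer cell lines in 1536-well plates got either a single drug or a fixed anchor-drug dose together with five library-drug doses (not always all listed) in √10 steps, by pin tool, on the day after seeding. Nuclei were counted after 5 days, and relative viability is the treated-to-vehicle ratio of nuclei counts. Values are medians of duplicate plates.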

Ruxolitinib + Luminespib = compound: N#CC[C@H](C1CCCC1)n1cc(-c2ncnc3[nH]ccc23)cn1 [Ruxolitinib] + CCNC(=O)c1noc(-c2cc(C(C)C)c(O)cc2O)c1-c1ccc(CN2CCOCC2)cc1 [Luminespib] (partner 0.01 µM)
Outline: as §1

VE-821 + Palbociclib = compound: CS(=O)(=O)c1ccc(-c2cnc(N)c(C(=O)Nc3ccccc3)n2)cc1 [VE-821] + CC(=O)c1c(C)c2cnc(Nc3ccc(N4CCNCC4)cn3)nc2n(C2CCCC2)c1=O [Palbociclib] (partner 0.5 µM)
Outline: as §1

Vismodegib + Trametinib = compound: CS(=O)(=O)c1ccc(C(=O)Nc2ccc(Cl)c(-c3ccccn3)c2)c(Cl)c1 [Vismodegib] + CC(=O)Nc1cccc(-n2c(=O)n(C3CC3)c(=O)c3c(Nc4ccc(I)cc4F)n(C)c(=O)c(C)c32)c1 [Trametinib] (partner 0.02 µM)
Outline: as §1

Row | Cell Line | relative viability (Vismodegib + Alpelisib; first compound 0.08 µM) | relative viability (Vismodegib + Alpelisib; first compound 0.253 µM) | relative viability (Vismodegib + Alpelisib; first compound 0.8 µM) | relative viability (Vismodegib + Alpelisib; first compound 2.53 µM) | relative viability (Vismodegib + Alpelisib; first compound 8 µM) | relative viability (Ruxolitinib + Luminespib; first compound 0.253 µM) | relative viability (Ruxolitinib + Luminespib; first compound 0.8 µM) | relative viability (Ruxolitinib + Luminespib; first compound 2.53 µM) | relative viability (Ruxolitinib + Luminespib; first compound 8 µM) | relative viability (VE-821 + Palbociclib; first compound 0.08 µM) | relative viability (VE-821 + Palbociclib; first compound 0.253 µM) | relative viability (VE-821 + Palbociclib; first compound 0.8 µM) | relative viability (VE-821 + Palbociclib; first compound 2.53 µM) | relative viability (VE-821 + Palbociclib; first compound 8 µM) | relative viability (Vismodegib + Trametinib; first compound 0.08 µM) | relative viability (Vismodegib + Trametinib; first compound 0.253 µM) | relative viability (Vismodegib + Trametinib; first compound 0.8 µM) | relative viability (Vismodegib + Trametinib; first compound 2.53 µM) | relative viability (Vismodegib + Trametinib; first compound 8 µM) | relative viability (Ruxolitinib + Luminespib; first compound 0.08 µM)
1 | A-427 | 1.02 | 1.04 | 0.965 | 1.09 | 1.1 | 0.969 | 1 | 0.715 | 0.813 | 0.55 | 0.547 | 0.565 | 0.562 | 0.449 | 0.812 | 0.82 | 0.654 | 0.777 | 0.913 | –
2 | NCI-H2347 | 0.966 | 0.994 | 0.91 | 1.02 | 1.1 | 0.456 | 0.41 | 0.302 | 0.676 | 0.385 | 0.492 | 0.42 | 0.457 | 0.498 | 0.311 | 0.286 | 0.265 | 0.301 | 0.288 | 0.519
3 | BEN | 1.03 | 0.988 | 0.863 | 0.984 | 1.02 | 0.64 | 0.519 | 0.377 | 0.33 | 0.504 | 0.461 | 0.469 | 0.517 | 0.642 | 1.14 | 1.03 | 0.873 | 1.14 | 1.1 | 0.339
4 | NCI-H23 | 0.801 | 0.588 | 0.672 | 0.652 | 0.853 | 0.209 | 0.242 | 0.214 | 0.191 | 0.562 | 0.49 | 0.466 | 0.352 | 0.274 | 0.511 | 0.353 | 0.368 | 0.411 | 0.482 | 0.195
